From ChEMBL document CHEMBL1143021, “Synthesis of xanthone derivatives with extended pi-systems as alpha-glucosidase inhibitors: insight into the probable binding mode” (Bioorg Med Chem, 2007) come the findings set out here.

A short description of this experiment: Inhibition of yeast alpha glucosidase at pH 6.8. On the set-up: species or system Saccharomyces cerevisiae.
One may read the IC50 as the concentration needed to halve the response being measured. Read a high IC50 as weaker potency in that assay. Take `Oc1cc(O)c2c(c1)Oc1cc3ccccc3cc1C2`: half-maximal inhibition (IC50) required 27.8 µM.
The value for `O=c1c2cc3ccccc3cc2oc2c([N+](=O)[O-])c(O)cc(O)c12` was 20.1 µM; that for `O=c1c2cc3cc(O)ccc3cc2oc2cc(O)cc(O)c12` was 5.8 µM; that for `O=c1c2c(O)cc(O)cc2oc2ccc3ccccc3c12` was 39.9 µM.
The value for `O=c1c2ccccc2oc2cc(O)cc(O)c12` was 161 µM.
In the case of `O=c1c2cc3ccccc3cc2oc2cc(O)cc(O)c12`, half-maximal inhibition (IC50) required 9.3 µM.
The molecule `O=c1c2cc3cccc(O)c3cc2oc2cc(O)cc(O)c12` yielded a half-maximal inhibitory concentration (IC50) of 8 µM.
The value for `Oc1cc(O)c2c(c1)Oc1ccc3ccccc3c1C2` was 34.9 µM.
The value for `COc1cc(O)c2c(=O)c3cc4ccccc4cc3oc2c1` was 31.3 µM.
As to `OC[C@H]1NC(O)C[C@@H](O)[C@@H]1O` (stereo not given in full), the 50% inhibitory concentration (IC50) came to 26.4 µM.
